ChEMBL document CHEMBL1201862, “PubChem BioAssay data set” (2004)
Calls of active or inactive are those of the source.

Experiments:
[1] = molecular target: T1, Melanocortin receptor 4 (Homo sapiens, UniProt P32245); assay type: functional, cell-based;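 further: Cell-based assay with luminescence read-out, confirmatory dose-response testing for agonist activity of biased ligands at MC4R; human U2OS cells with tagged receptor and beta-arrestin; potency of agonists that increase receptor coupling to beta-arrestin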
[2] = molecular target: Cytochrome P450 2C9 (Homo sapiens, UniProt P11712)
[3] = molecular target: Cytochrome P450 3A4 (Homo sapiens, UniProt P08684);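 further: CYP3A4 tested as one member of a cytochrome P450 panel screen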
[4] = molecular target: Estrogen receptor beta (Homo sapiens, UniProt Q92731);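 further: recombinant ER-beta bound to coactivator SRC1 peptide in presence of estradiol agonist; inhibitors block coactivator peptide binding and lower the FRET signal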
[5] = molecular target: Cytochrome P450 2D6 (Homo sapiens, UniProt P10635);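 further: CYP2D6 member of a cytochrome P450 panel assay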
[6] = molecular target: T2, High affinity choline transporter 1 (Homo sapiens, UniProt Q9GZV3); test: CHT inhibitors, dose response, cell-based, 5-point CRC, membrane potential dye (AID 504840); assay type: functional
T2 sequence (Q9GZV3 whole entry): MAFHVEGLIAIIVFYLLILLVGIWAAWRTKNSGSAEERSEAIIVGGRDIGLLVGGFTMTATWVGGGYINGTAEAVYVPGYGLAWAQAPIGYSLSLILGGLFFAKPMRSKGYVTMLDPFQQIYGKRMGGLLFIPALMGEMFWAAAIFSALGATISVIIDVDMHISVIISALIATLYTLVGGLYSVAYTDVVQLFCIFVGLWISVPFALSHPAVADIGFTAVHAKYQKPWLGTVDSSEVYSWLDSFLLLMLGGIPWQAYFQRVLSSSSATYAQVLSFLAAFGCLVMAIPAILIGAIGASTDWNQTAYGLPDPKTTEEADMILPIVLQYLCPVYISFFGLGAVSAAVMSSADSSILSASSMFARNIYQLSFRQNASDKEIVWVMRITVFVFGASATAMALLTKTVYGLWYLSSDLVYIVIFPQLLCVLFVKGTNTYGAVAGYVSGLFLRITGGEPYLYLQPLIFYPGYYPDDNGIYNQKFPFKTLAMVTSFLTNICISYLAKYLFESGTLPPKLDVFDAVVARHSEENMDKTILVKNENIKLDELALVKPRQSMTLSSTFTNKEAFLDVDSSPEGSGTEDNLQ

[7] = molecular target: T2, High affinity choline transporter 1; test: CHT inhibitors, dose response, cell-based, 10-point CRC, membrane potential dye (AID 588401); assay type: functional;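 further: membrane potential dye fluorescence of choline-evoked depolarization via CHT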
[8] = nonselective inhibitors of cellular cAMP signaling, dose response, counter-screen for MC4R biased antagonist project, cell-based, TR-FRET cAMP detection (AID 602305); assay type: functional;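 further: U2OS cells stimulated with forskolin near its EC80 as the cAMP inducer; potency is for inhibition of forskolin-stimulated cAMP signaling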
[9] = molecular target: T1, Melanocortin receptor 4; test: MC4R antagonist potency on cAMP, dose response, cell-based, TR-FRET, biased antagonists (AID 602298); assay type: functional;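 further: antagonist potency against agonist-stimulated cAMP production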
[10] = molecular target: T3, Mitochondrial peptide methionine sulfoxide reductase (Bos taurus, UniProt P54149); assay type: functional;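 further: absorbance read-out, biochemical high-throughput dose-response screen for MsrA inhibitors, confirmatory; recombinant bovine MsrA coupled to E. coli TrxB with NADPH and selenocystamine; potency is for inhibitors of MsrA activity on DMSO substrate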
T3 sequence (P54149 whole entry): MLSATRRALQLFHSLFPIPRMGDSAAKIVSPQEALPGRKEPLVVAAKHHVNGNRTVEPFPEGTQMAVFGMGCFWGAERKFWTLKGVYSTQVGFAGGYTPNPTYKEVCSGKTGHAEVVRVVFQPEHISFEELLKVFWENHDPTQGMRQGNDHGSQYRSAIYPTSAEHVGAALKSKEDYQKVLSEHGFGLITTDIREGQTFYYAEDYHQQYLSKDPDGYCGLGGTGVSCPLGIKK

[11] = molecular target: Receptor-type tyrosine-protein kinase FLT3 (Homo sapiens, UniProt P36888); assay type: functional;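 further: FLT3 was tested as one member of a kinome-wide kinase panel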
[12] = molecular target: Serine/threonine-protein kinase pim-1 (Homo sapiens, UniProt P11309); assay type: functional
[13] = molecular target: Adenosylmethionine-8-amino-7-oxononanoate aminotransferase (Mycobacterium tuberculosis, UniProt P9WQ81); test: Mycobacterium tuberculosis BioA enzyme inhibitor Measured in Biochemical System Using Plate Reader - 2163-02_Inhibitor_Dose_CherryPick_Activity.; assay type: functional, Mycobacterium tuberculosis UT205
Adenosylmethionine-8-amino-7-oxononanoate aminotransferase, sequence (P9WQ81 whole entry): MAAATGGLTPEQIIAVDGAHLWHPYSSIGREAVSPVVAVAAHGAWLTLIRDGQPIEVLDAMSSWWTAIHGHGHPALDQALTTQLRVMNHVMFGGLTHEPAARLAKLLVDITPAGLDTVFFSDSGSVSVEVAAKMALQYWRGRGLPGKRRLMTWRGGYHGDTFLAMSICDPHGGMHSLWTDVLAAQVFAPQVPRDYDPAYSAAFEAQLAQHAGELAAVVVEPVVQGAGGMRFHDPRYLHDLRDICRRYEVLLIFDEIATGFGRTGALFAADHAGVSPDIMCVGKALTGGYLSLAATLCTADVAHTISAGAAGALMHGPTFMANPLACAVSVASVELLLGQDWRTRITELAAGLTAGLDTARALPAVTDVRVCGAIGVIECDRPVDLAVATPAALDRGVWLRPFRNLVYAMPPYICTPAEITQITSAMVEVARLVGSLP

T1 sequence (P32245 whole entry): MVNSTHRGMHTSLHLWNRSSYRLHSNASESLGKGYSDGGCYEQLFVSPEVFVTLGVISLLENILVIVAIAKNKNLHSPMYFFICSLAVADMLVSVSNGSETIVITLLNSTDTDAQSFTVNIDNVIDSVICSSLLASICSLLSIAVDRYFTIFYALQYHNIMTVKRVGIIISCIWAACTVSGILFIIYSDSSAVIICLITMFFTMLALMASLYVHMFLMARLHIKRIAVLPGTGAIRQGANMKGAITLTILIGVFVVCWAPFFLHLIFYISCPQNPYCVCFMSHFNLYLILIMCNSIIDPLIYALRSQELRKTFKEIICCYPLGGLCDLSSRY
Receptor-type tyrosine-protein kinase FLT3, sequence (P36888 whole entry): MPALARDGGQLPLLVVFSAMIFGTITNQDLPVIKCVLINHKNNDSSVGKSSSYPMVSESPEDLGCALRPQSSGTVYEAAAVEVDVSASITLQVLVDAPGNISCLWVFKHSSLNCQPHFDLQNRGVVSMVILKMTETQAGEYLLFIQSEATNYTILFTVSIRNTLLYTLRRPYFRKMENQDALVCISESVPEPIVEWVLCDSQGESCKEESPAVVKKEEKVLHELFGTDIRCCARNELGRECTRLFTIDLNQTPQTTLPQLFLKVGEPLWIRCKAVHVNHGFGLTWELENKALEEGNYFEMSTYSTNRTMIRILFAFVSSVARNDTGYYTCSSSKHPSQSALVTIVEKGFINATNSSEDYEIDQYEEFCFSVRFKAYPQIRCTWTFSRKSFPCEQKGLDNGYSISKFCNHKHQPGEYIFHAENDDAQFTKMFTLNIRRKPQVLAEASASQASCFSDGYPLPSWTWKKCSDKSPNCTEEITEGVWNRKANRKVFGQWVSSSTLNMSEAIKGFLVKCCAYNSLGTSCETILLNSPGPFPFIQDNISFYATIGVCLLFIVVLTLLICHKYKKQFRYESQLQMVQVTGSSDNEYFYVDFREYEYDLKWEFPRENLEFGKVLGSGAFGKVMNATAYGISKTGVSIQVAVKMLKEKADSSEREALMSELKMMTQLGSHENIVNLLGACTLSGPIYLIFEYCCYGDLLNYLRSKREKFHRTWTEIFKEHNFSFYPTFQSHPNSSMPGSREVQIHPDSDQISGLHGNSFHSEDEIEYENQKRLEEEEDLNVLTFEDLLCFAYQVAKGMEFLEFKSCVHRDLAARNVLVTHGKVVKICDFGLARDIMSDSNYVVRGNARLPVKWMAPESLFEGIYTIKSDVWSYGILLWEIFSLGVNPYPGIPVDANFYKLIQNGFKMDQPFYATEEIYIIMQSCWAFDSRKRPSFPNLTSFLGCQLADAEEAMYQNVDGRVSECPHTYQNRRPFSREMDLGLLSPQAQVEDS
Cytochrome P450 2D6, sequence (P10635 whole entry): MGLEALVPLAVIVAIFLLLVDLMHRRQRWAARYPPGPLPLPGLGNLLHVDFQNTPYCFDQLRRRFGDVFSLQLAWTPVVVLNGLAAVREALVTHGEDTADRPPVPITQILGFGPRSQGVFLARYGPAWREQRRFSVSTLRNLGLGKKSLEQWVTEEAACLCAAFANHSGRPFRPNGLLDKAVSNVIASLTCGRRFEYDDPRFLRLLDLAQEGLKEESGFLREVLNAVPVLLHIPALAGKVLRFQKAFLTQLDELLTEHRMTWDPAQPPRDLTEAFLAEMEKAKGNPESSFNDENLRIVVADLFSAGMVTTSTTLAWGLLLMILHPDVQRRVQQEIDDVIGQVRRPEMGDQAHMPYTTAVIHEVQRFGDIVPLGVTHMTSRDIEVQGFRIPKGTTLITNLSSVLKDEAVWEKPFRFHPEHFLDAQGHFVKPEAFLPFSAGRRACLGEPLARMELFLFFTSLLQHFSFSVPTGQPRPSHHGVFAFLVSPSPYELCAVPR
Serine/threonine-protein kinase pim-1, sequence (P11309 whole entry): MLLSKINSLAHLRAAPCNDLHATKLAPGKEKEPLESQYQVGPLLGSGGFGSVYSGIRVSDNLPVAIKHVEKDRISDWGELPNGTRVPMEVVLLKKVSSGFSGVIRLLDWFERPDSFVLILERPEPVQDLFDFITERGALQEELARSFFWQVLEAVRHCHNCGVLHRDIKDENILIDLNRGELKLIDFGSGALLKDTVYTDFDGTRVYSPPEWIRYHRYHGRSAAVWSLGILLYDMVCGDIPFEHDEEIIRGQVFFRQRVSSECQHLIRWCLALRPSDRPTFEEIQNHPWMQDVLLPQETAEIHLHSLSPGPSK
Cytochrome P450 3A4, sequence (P08684 whole entry): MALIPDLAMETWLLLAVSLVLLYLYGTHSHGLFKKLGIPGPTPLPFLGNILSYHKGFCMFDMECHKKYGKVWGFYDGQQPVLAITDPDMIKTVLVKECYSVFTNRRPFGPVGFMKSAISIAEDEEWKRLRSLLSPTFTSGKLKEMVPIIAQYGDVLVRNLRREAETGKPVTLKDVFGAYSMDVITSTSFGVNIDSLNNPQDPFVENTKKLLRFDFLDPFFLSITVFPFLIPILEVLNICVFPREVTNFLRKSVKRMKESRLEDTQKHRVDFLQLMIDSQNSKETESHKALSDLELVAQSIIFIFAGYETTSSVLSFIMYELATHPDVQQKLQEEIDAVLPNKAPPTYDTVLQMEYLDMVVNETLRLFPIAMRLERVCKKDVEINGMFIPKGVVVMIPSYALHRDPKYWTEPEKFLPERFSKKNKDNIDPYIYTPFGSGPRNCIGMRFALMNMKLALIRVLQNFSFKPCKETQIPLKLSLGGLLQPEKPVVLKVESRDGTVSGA
Estrogen receptor beta, sequence (Q92731 whole entry): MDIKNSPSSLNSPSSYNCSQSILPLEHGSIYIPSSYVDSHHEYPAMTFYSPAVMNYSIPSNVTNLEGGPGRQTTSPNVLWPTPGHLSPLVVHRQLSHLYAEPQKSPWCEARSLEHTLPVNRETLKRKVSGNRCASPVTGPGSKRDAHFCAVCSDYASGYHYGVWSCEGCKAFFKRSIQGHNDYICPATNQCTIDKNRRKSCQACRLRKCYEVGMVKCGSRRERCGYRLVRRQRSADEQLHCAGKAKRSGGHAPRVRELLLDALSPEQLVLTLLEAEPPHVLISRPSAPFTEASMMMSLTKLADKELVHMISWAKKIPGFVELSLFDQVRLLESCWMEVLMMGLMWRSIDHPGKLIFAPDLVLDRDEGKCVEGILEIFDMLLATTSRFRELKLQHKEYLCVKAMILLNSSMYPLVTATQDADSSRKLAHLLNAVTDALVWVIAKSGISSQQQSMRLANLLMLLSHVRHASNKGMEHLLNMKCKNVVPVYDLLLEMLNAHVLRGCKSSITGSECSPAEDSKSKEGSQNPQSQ
Cytochrome P450 2C9, sequence (P11712 whole entry): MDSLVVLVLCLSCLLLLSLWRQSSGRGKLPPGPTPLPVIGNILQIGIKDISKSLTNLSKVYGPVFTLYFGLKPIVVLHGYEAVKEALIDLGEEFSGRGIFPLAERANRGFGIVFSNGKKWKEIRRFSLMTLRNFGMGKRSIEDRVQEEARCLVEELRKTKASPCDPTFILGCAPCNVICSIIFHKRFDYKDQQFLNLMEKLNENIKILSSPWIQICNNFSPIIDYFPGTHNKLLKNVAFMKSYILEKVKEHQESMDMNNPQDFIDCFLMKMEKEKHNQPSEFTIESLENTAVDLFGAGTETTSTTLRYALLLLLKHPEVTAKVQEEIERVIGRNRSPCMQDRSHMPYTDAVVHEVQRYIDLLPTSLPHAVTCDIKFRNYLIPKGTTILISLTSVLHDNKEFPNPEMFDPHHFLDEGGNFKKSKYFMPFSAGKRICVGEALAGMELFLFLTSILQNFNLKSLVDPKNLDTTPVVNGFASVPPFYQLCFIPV

For `CCOc1cc(NC(=O)c2cccs2)c(OCC)cc1NC(=O)c1ccco1`, the EC50 [1] was > 89.1 µM (inactive), the AC50 [2] was 0.0355 µM (inconclusive) and the AC50 [3] was 0.178 µM (inconclusive). For the same molecule, the IC50 [4] was > 50 µM (not active) and the AC50 [5] was 0.708 µM (inconclusive).

In the case of `Cc1noc(C)c1COC(=O)c1cnc(Cl)c(Cl)c1`, the IC50 [6] is reported as 10 µM (active) and the IC50 [7] is reported as 5.01 µM (active).

For `CCOC(=O)CCC(=O)Nc1ccc(S(=O)(=O)N2CCc3ccccc32)cc1`, the IC50 [8] was > 64.6 µM (inactive) and the IC50 [9] was > 64.6 µM (inactive).

In the case of `COc1ccc(/C=N\NC(=O)/C(=C\Nc2nccc(C)n2)NC(=O)c2ccccc2)cc1`, the IC50 [10] is reported as 149 µM (inactive).

With `c1ccc(C2Cc3cn[nH]c3C2)cc1` (stereo not given) the Ki [11] was 15.8 µM (active) and the Ki [12] was 79.4 µM (active).

For `COc1ccc(NC(=O)c2ccc(Cl)nc2)cc1S(=O)(=O)N1CCOCC1`, the AC50 [13] was 2.27 µM (active).

For `COc1ccc(C(=O)C[n+]2cccc(C)c2)cc1`, the IC50 [6] was 2.43 µM (active) and the IC50 [7] was 2.05 µM (active).
